One assay deals with Fas. The assay is described as follows: Fas expression in human islets (Western blot, RT-PCR, immunostaining). It counts as cell-based. The conditions noted are these: 33.3 mM glucose with IL-1Ra. The procedure:
Western blot analysis. Islets were cultured in a culture medium in non-adherent plastic dishes. One day after isolation, the medium was changed and groups of 200 islets were incubated for 44 hours in culture medium containing 5.5 or 33.3 mM glucose without or with 2 ng/ml IL-1β or 500 ng/ml IL-1Ra. At the end of the incubations, islets were washed in PBS, suspended in 50 μl sample buffer containing 125 mM Tris-HCl, pH 6.8, 4% SDS, 10% glycerol, 0.3% bromphenol blue, 1.8% β-mercaptoethanol and boiled for 5 min. Equivalent amounts of each treatment group were run on 15% SDS polyacrylamide gels. […] Intensity of bands was analyzed using Multianalyst™ (Bio Rad, Laboratories inc., Hercules, Calif.).
RNA extraction, RT-PCR and sequencing of RT-PCR product. […] The conditions of the PCR amplification for IL-1β and Fas were: denaturation 30 seconds at 94° C., annealing 30 seconds at 60° C. and elongation 30 seconds at 72° C., followed for real time PCR by quantification 5 seconds at 80° C., 45 cycles. […] For quantitative analysis, we used the Light Cycler quantitative PCR system (Roche, Basel, Switzerland) and performed quantitative PCR with a commercial kit (Light Cycler-DNA Master SYBR Green I; Roche). […]
(In general: A western blot detects proteins with antibodies after separation by electrophoresis.)

In the next assay the test system is IL-1Ra. The assay is described as follows: IL-1Ra release and mRNA in human blood monocytes. The assay is classed as cell-based. The conditions noted are these: leptin, 15 and 48 hours. The procedure: Human blood monocytes were isolated as described previously (37), cultured in RPMI 1640 (Invitrogen) containing 100 U/ml penicillin, 100 μg/ml streptomycin and 10% fetal calf serum and exposed to 10 or 500 nM leptin.
RNA extraction and RT-PCR. Islets were cultured in a suspension as described above. Total RNA was extracted using Rneasy mini kit (Qiagen, Basel, Switzerland) and RT-PCR was performed using the Superscript™ II Rnase H-Reverse transcriptase kIT and oligo (dT) (7) (Life technologies, Gaithersburg, Md., USA) according to the instructions from the manufacturers. The following primers were used: 5′[…]3′(SEQ ID. NO. 1)/5′[…]3′ (human IL-1Ra) (SEQ ID.NO. 2) and 5′[…]3′(SEQ ID. NO. 3)/5′[…]3′ (human IL-1β) (SEQ ID. NO. 4). PCR conditions were: denaturation for 30 seconds at 94° C., annealing for 30 seconds at 60° C., and elongation for 30 seconds at 72° C., followed for real time PCR by quantification for 5 seconds at 82° C.; repetition for 40 cycles. Saturation of PCR product occurred between 19 and 33 cycles. […] For quantitative analysis, we used the LightCycler quantitative PCR system (Roche) and performed quantitative PCR with a commercial kit (LightCycler-DNA Master SYBR Green I; Roche). […]
Cytokine release. Cytokine release was evaluated in the culture medium collected before the termination of each experiment using human IL-1β and IL-1Ra ELISA kits (R&D Systems Inc.).

The source of these data is patent US7572770B2, “Use of an interleukin 1 receptor antagonist and/or pyrrolidinedithiocarbamate for the treatment or prophylaxis of type 2 diabetes” (University of Zurich, priority 2002, dated 2009).

On to “Interleukin 1 receptor antagonist [IL-1Ra]”, for which the “glucose-dependent induction of Fas-receptor protein and mRNA” value in the assay on Fas was “hindered”. “leptin: rh leptin (PeproTech); protein encoded by the ob gene”: the “IL-1Ra release and mRNA in peripheral blood monocytes” value in the assay on IL-1Ra is reported as “A similar dual effect”.
